Test results published in patent publication US20230149318A1, “COMBINATIONS OF NANOPARTICLE-ENCAPSULATED CARGO ENTITIES AND METHODS FOR MAKING AND USING SAME” (Nurevelation, LLC, priority 2021, published 2023).

How the values were obtained:
[1] = dystonia and parkinsonism due to antipsychotics; cited from earlier work
[2] = NMR comparison of CBD before and after encapsulation into nanoparticles (stability); format: physicochemical; conditions: encapsulated CBD (bottom spectrum) relative to non-encapsulated CBD sample (top spectrum), FIG. 3
Excerpt: In some aspects, the cannabinoid in the dispersion can have a purity of at least 90%. In a further aspect, the purity of the cannabinoid in the dispersion ranges from 90-100%. In a still further aspect, the purity of the cannabinoid in the dispersion ranges from 92-97%. In general, the inventors have discovered that the encapsulation process described herein can be improved with the use of a pure cannabinoid starting material (e.g., from 92-97% pure). Similarly, the nanoparticle encapsulated cannabinoid products can advantageously maintain the purity of the cannabinoid over extended periods of time. In some aspects, the purity of the cannabinoid starting material can be maintained once encapsulated for a period of twelve months or longer, e.g., 18 months or longer, or even 24 months or longer. The stable shelf life of the cannabinoid nanoparticles is an advantage over many existing methods for delivering cannabinoid products. In some aspects, the stability of the cannabinoid can be measured using NMR, e.g., by comparing a pre-encapsulated cannabinoid to a cannabinoid extracted from a nanoparticle prepared by a disclosed method.

Row | Structure (SMILES) | duration of benefits [1] [h] | time until benefits are seen [1] [h] | stability of CBD after encapsulation into nanoparticles (NMR spectra) [2]
1 | CN1[C@@H]2CC[C@H]1C[C@@H](OC(c1ccccc1)c1ccccc1)C2 [Benztropine] | ≤ 10 | ≤ 2 | –
2 | C=C(C)[C@@H]1CCC(C)=C[C@H]1c1c(O)cc(CCCCC)cc1O [CBD, cannabidiol] | – | – | remains intact
